In brackets after ≈: the same amount, converted by molar mass.

Consider 13 molecules from ChEMBL document CHEMBL4316625, “Double prodrugs of a fosmidomycin surrogate as antimalarial and antitubercular agents” (Bioorg Med Chem Lett, 2019).

In series [1] the test system is Mycobacterium tuberculosis. The series can be described thus: Antitubercular activity against Mycobacterium tuberculosis H37Rv reduction in bacterial multiplication incubated for 7 days by luminometric assay. It is filed as functional. Particulars: 168 h.
The nature of series [2]: Cytotoxicity in human MRC5 cells assessed as reduction in cell viability incubated for 24 hrs by resazurin-based cytotoxicity assay. In general terms: The colour change of resazurin is a common sign of viable cells or microbes.
A further series relates to Plasmodium falciparum. The series can be described thus: Antiplasmodial activity against Plasmodium falciparum K1 infected in human erythrocytes assessed as reduction in parasite multiplication incubated for 72 hrs by Malstat method. The class given is functional, organism-based. As to conditions: K1, 72 h.
Series [3] can be described thus: Oral bioavailability in healthy human at 500 mg. It is filed as ADME, organism-based. As to conditions: in vivo.

What is called MIC is the smallest concentration in the dilution series that meets the test's criterion for growth inhibition. One may read the CC50 as the concentration that lowers cell viability or growth by half. Molecule `CN(O)C(=O)CCCP(=O)(OCOC(=O)C(C)(C)C)OCOC(=O)C(C)(C)C` had an MIC in series [1] greater than 50 µM. For the same molecule, the half-maximal cytotoxic concentration (CC50) at 24 h in series [2] is greater than 64 µM.

One may read the IC50 as the concentration needed to halve the response being measured. `CN(OC(=O)c1ccccc1)C(=O)CCCP(=O)(OCOC(=O)C(C)(C)C)OCOC(=O)C(C)(C)C`: in the series on Plasmodium falciparum, the IC50 turned out to be 1.08 µM. Besides, the MIC in series [1] was 50 µM (≈ 26.5 µg/mL). For the same molecule, the CC50 at 24 h in series [2] was greater than 64 µM.

With `CN(OC(=O)Nc1ccccc1)C(=O)CCCP(=O)(OCOC(=O)C(C)(C)C)OCOC(=O)C(C)(C)C`, in the series with Plasmodium falciparum, the IC50 was found to be 3.34 µM. In series [2], the CC50 at 24 h was found to be 33.4 µM.

With `CN(OCc1ccc([N+](=O)[O-])o1)C(=O)CCCP(=O)(OCOC(=O)C(C)(C)C)OCOC(=O)C(C)(C)C`, the IC50 with Plasmodium falciparum turned out to be 4.42 µM. The molecule also showed an MIC in series [1] of 12.5 µM (≈ 6.88 µg/mL). Moreover, the CC50 at 24 h in series [2] worked out at 26.3 µM.

`CN(OCc1ccc([N+](=O)[O-])cc1)C(=O)CCCP(=O)(OCOC(=O)C(C)(C)C)OCOC(=O)C(C)(C)C`: the IC50 in the series with Plasmodium falciparum was determined as 8.79 µM. This molecule also had an MIC in series [1] greater than 50 µM. In addition, the CC50 at 24 h in series [2] stood at 26.5 µM.

As to `CN(OC(=O)NCc1ccccc1)C(=O)CCCP(=O)(OCOC(=O)C(C)(C)C)OCOC(=O)C(C)(C)C`, the IC50 in the series on Plasmodium falciparum was 0.64 µM. The molecule further showed an MIC in series [1] greater than 50 µM. Moreover, in series [2], the CC50 at 24 h is 27.9 µM.

As for `CCNC(=O)ON(C)C(=O)CCCP(=O)(OCOC(=O)C(C)(C)C)OCOC(=O)C(C)(C)C`, in the series on Plasmodium falciparum, the IC50 came to 2.52 µM. In addition, the MIC in series [1] was greater than 50 µM. Also, the CC50 at 24 h in series [2] was determined as 25.9 µM.

For `CC(=O)ON(C)C(=O)CCCP(=O)(OCOC(=O)C(C)(C)C)OCOC(=O)C(C)(C)C`, the IC50 in the series on Plasmodium falciparum was 1.34 µM. The CC50 at 24 h in series [2] was greater than 64 µM.

In the case of `CCCCCCCCC(=O)ON(C)C(=O)CCCP(=O)(OCOC(=O)C(C)(C)C)OCOC(=O)C(C)(C)C`, the IC50 in the series with Plasmodium falciparum worked out at 1.41 µM. For the same molecule, in series [1], the MIC is 50 µM (≈ 28.3 µg/mL). Besides, the CC50 at 24 h in series [2] is greater than 64 µM.

Take `CN(OC(=O)OCc1ccccc1)C(=O)CCCP(=O)(OCOC(=O)C(C)(C)C)OCOC(=O)C(C)(C)C`: the IC50 with Plasmodium falciparum was greater than 36 µM. Also, the minimum inhibitory concentration (MIC) in series [1] was greater than 50 µM. In addition, in series [2], the CC50 at 24 h is greater than 42 µM.

On to `CN(OCc1ccc([N+](=O)[O-])s1)C(=O)CCCP(=O)(OCOC(=O)C(C)(C)C)OCOC(=O)C(C)(C)C`, for which the IC50 with Plasmodium falciparum is 4.69 µM. Besides, the MIC in series [1] turned out to be 12.5 µM (≈ 7.08 µg/mL). In addition, the cytotoxic concentration (CC50) at 24 h in series [2] is 20.5 µM.

For the molecule `CCCCCCCCC(=O)Oc1ccc(CON(C)C(=O)CCCP(=O)(OCOC(=O)C(C)(C)C)OCOC(=O)C(C)(C)C)cc1`, the IC50 in the series on Plasmodium falciparum was determined as 19 µM. For the same molecule, it took 50 µM (≈ 33.6 µg/mL) to inhibit growth in series [1] (MIC). The CC50 at 24 h in series [2] is greater than 64 µM.

As usually defined, the bioavailability is dose-corrected exposure relative to a reference, in per cent. A high value points to good availability. In series [3], `O=CN(O)CCCP(=O)([O-])O.[Na+]` [FOSMIDOMYCIN SODIUM] came in with a bioavailability of 20 to 40%. This molecule also came in with an MIC in series [1] greater than 64 µM. In series [2], the CC50 at 24 h is greater than 64 µM.
